Assay: molar heat capacity at constant pressure
Settings: 101.33 kPa

CC12CC3CC(C1)CC(C)(C3)C2 [1,3-dimethyladamantane]
Settings | molar heat capacity at constant pressure [J/K/mol]
8.24 K, Crystal 2 | 2.062
8.72 K, Crystal 2 | 2.425
9.2 K, Crystal 2 | 2.838
9.68 K, Crystal 2 | 3.291
10.16 K, Crystal 2 | 3.758
10.73 K, Crystal 2 | 4.336
11.38 K, Crystal 2 | 5.1
12.04 K, Crystal 2 | 5.875
12.71 K, Crystal 2 | 6.75
13.36 K, Crystal 2 | 7.626
14.03 K, Crystal 2 | 8.543
14.69 K, Crystal 2 | 9.462
15.35 K, Crystal 2 | 10.41
16.02 K, Crystal 2 | 11.41
16.68 K, Crystal 2 | 12.45
17.35 K, Crystal 2 | 13.38
18.02 K, Crystal 2 | 14.36
18.7 K, Crystal 2 | 15.27
19.36 K, Crystal 2 | 16.17
20.03 K, Crystal 2 | 17.19
20.92 K, Crystal 2 | 18.43
22.01 K, Crystal 2 | 19.87
23.09 K, Crystal 2 | 21.29
24.18 K, Crystal 2 | 22.59
25.26 K, Crystal 2 | 23.98
26.35 K, Crystal 2 | 25.2
27.44 K, Crystal 2 | 26.35
30.7 K, Crystal 2 | 29.56
31.79 K, Crystal 2 | 30.56
32.87 K, Crystal 2 | 31.44
33.96 K, Crystal 2 | 32.41
35.04 K, Crystal 2 | 33.24
36.12 K, Crystal 2 | 34.11
37.2 K, Crystal 2 | 34.83
38.29 K, Crystal 2 | 35.57
39.37 K, Crystal 2 | 36.35
40.44 K, Crystal 2 | 37.09
41.52 K, Crystal 2 | 37.79
42.59 K, Crystal 2 | 38.45
43.67 K, Crystal 2 | 39.15
44.74 K, Crystal 2 | 39.94
45.82 K, Crystal 2 | 40.58
46.91 K, Crystal 2 | 41.26
49.08 K, Crystal 2 | 42.53
50.15 K, Crystal 2 | 43.17
51.21 K, Crystal 2 | 43.97
52.28 K, Crystal 2 | 44.55
53.34 K, Crystal 2 | 45.28
54.4 K, Crystal 2 | 45.93
55.46 K, Crystal 2 | 46.84
56.52 K, Crystal 2 | 47.67
58.46 K, Crystal 2 | 49.49
60.51 K, Crystal 2 | 51.1
62.53 K, Crystal 2 | 52.46
63 K, Crystal 2 | 52.93
63.91 K, Crystal 2 | 53.57
64.83 K, Crystal 2 | 54.06
65.75 K, Crystal 2 | 54.71
66.66 K, Crystal 2 | 55.08
67.58 K, Crystal 2 | 55.66
68.49 K, Crystal 2 | 56.24
69.41 K, Crystal 2 | 57.05
71.4 K, Crystal 2 | 57.87
73.43 K, Crystal 2 | 58.84
75.49 K, Crystal 2 | 59.92
77.45 K, Crystal 2 | 60.94
79.6 K, Crystal 2 | 62.15
81.55 K, Crystal 2 | 63.11
82.51 K, Crystal 2 | 63.18
83.54 K, Crystal 2 | 64.04
84.58 K, Crystal 2 | 64.38
85.62 K, Crystal 2 | 65.28
86.66 K, Crystal 2 | 66.25
87.69 K, Crystal 2 | 66.5
88.73 K, Crystal 2 | 67.15
89.76 K, Crystal 2 | 68.17
90.79 K, Crystal 2 | 68.78
91.82 K, Crystal 2 | 69.62
92.85 K, Crystal 2 | 70.65
93.88 K, Crystal 2 | 71.07
94.91 K, Crystal 2 | 71.83
95.93 K, Crystal 2 | 72.84
96.96 K, Crystal 2 | 73.52
97.98 K, Crystal 2 | 74.02
99.01 K, Crystal 2 | 74.65
100.04 K, Crystal 2 | 75.78
101.06 K, Crystal 2 | 77.14
102.08 K, Crystal 2 | 77.29
103.1 K, Crystal 2 | 78.16
104.13 K, Crystal 2 | 78.65
105.15 K, Crystal 2 | 79.24
106.17 K, Crystal 2 | 79.77
107.18 K, Crystal 2 | 80.75
108.2 K, Crystal 2 | 81.19
109.21 K, Crystal 2 | 82.31
110.22 K, Crystal 2 | 83.3
111.24 K, Crystal 2 | 83.76
112.25 K, Crystal 2 | 84.74
113.26 K, Crystal 2 | 85.56
114.27 K, Crystal 2 | 86.06
115.29 K, Crystal 2 | 86.71
116.3 K, Crystal 2 | 87.61
117.31 K, Crystal 2 | 88.53
118.32 K, Crystal 2 | 89.31
119.33 K, Crystal 2 | 90.06
120.34 K, Crystal 2 | 90.8
121.35 K, Crystal 2 | 91.66
122.36 K, Crystal 2 | 92.56
123.36 K, Crystal 2 | 93.09
124.37 K, Crystal 2 | 94.23
125.38 K, Crystal 2 | 94.72
126.39 K, Crystal 2 | 95.77
127.4 K, Crystal 2 | 96.32
128.4 K, Crystal 2 | 97.15
129.4 K, Crystal 2 | 97.61
130.4 K, Crystal 2 | 98.84
131.41 K, Crystal 2 | 99.23
132.41 K, Crystal 2 | 99.74
133.41 K, Crystal 2 | 100.92
135.41 K, Crystal 2 | 102.12
136.41 K, Crystal 2 | 102.85
137.41 K, Crystal 2 | 103.66
138.41 K, Crystal 2 | 104.15
139.41 K, Crystal 2 | 105.02
140.41 K, Crystal 2 | 106
141.4 K, Crystal 2 | 106.56
142.4 K, Crystal 2 | 107.72
143.4 K, Crystal 2 | 107.89
144.4 K, Crystal 2 | 108.44
145.37 K, Crystal 2 | 109.47
146.37 K, Crystal 2 | 110.32
147.36 K, Crystal 2 | 111.05
148.36 K, Crystal 2 | 112.04
149.35 K, Crystal 2 | 112.85
150.34 K, Crystal 2 | 113.58
151.33 K, Crystal 2 | 114.44
153.32 K, Crystal 2 | 115.43
154.31 K, Crystal 2 | 116.66
155.3 K, Crystal 2 | 117.21
156.29 K, Crystal 2 | 118.03
157.28 K, Crystal 2 | 118.57
158.26 K, Crystal 2 | 119.55
159.25 K, Crystal 2 | 119.81
160.24 K, Crystal 2 | 120.34
161.21 K, Crystal 2 | 122.14
162.2 K, Crystal 2 | 123.06
163.18 K, Crystal 2 | 123.69
164.17 K, Crystal 2 | 123.65
165.15 K, Crystal 2 | 125.01
166.14 K, Crystal 2 | 125.6
167.12 K, Crystal 2 | 126.03
168.11 K, Crystal 2 | 127.28
169.09 K, Crystal 2 | 127.61
170.07 K, Crystal 2 | 128.22
171.06 K, Crystal 2 | 129.42
172.04 K, Crystal 2 | 130.05
173.02 K, Crystal 2 | 130.24
174 K, Crystal 2 | 130.98
174.98 K, Crystal 2 | 131.94
175.95 K, Crystal 2 | 133.61
177.89 K, Crystal 2 | 134.48
178.87 K, Crystal 2 | 134.87
179.85 K, Crystal 2 | 135.66
180.58 K, Crystal 2 | 136.61
181.56 K, Crystal 2 | 136.89
182.53 K, Crystal 2 | 137.98
183.51 K, Crystal 2 | 138.41
184.48 K, Crystal 2 | 139.16
185.46 K, Crystal 2 | 140.28
186.43 K, Crystal 2 | 141.09
187.4 K, Crystal 2 | 142.02
189.35 K, Crystal 2 | 143.47
190.3 K, Crystal 2 | 143.86
194.17 K, Crystal 2 | 146.97
195.13 K, Crystal 2 | 148.03
197.07 K, Crystal 2 | 149.99
198.04 K, Crystal 2 | 150.21
198.92 K, Crystal 2 | 151.08
199.88 K, Crystal 2 | 152.08
201.81 K, Crystal 2 | 154.34
202.78 K, Crystal 2 | 154.59
203.74 K, Crystal 2 | 155.44
204.71 K, Crystal 2 | 156.27
205.67 K, Crystal 2 | 156.84
206.64 K, Crystal 2 | 157.68
207.51 K, Crystal 2 | 158.4
208.55 K, Crystal 2 | 158.98
209.51 K, Crystal 2 | 160.26
210.47 K, Crystal 2 | 161.38
211.43 K, Crystal 2 | 162.2
212.27 K, Crystal 2 | 162.95
213.23 K, Crystal 2 | 163.97
214.19 K, Crystal 2 | 164.82
215.15 K, Crystal 2 | 165.6
216.12 K, Crystal 2 | 166.3
217.08 K, Crystal 2 | 166.99
218.03 K, Crystal 2 | 167.93
218.99 K, Crystal 2 | 169.35
219.95 K, Crystal 2 | 170.97
225.79 K, Crystal 1 | 199.33
226.66 K, Crystal 1 | 199.97
227.53 K, Crystal 1 | 201.06
228.4 K, Crystal 1 | 201.46
230.04 K, Crystal 1 | 202.98
230.88 K, Crystal 1 | 203.84
230.9 K, Crystal 1 | 202.87
231.76 K, Crystal 1 | 203.35
232.42 K, Crystal 1 | 205.24
233.95 K, Crystal 1 | 206.13
235.48 K, Crystal 1 | 207.28
237 K, Crystal 1 | 208.26
238.51 K, Crystal 1 | 209.76
240.02 K, Crystal 1 | 210.33
241.45 K, Crystal 1 | 210.84
242.96 K, Crystal 1 | 212.78
244.46 K, Crystal 1 | 214.29
251.29 K, Liquid | 225.79
252.68 K, Liquid | 226.58
254.08 K, Liquid | 227.55
255.49 K, Liquid | 228.41
256.89 K, Liquid | 229.48
258.3 K, Liquid | 230.29
259.7 K, Liquid | 231
261.1 K, Liquid | 232.08
262.5 K, Liquid | 232.76
263.89 K, Liquid | 233.85
265.29 K, Liquid | 235.31
266.68 K, Liquid | 235.54
268.08 K, Liquid | 236.58
269.46 K, Liquid | 237.84
270.85 K, Liquid | 239.09
272.24 K, Liquid | 239.93
273.56 K, Liquid | 240.47
274.94 K, Liquid | 241.87
277.72 K, Liquid | 243.58
279.1 K, Liquid | 244.65
280.48 K, Liquid | 245.61
281.85 K, Liquid | 246.79
283.23 K, Liquid | 247.54
284.61 K, Liquid | 248.53
285.98 K, Liquid | 249.45
287.36 K, Liquid | 250.28
288.73 K, Liquid | 251.39
290.1 K, Liquid | 252.27
291.46 K, Liquid | 253.18
292.84 K, Liquid | 254.46
294.2 K, Liquid | 254.72
295.48 K, Liquid | 256.04
296.85 K, Liquid | 256.83
298.22 K, Liquid | 258.31
299.58 K, Liquid | 259.27
300.95 K, Liquid | 260.05
302.3 K, Liquid | 260.79
303.66 K, Liquid | 261.66
306.37 K, Liquid | 263.51
307.73 K, Liquid | 264.36
309.08 K, Liquid | 265.4
310.42 K, Liquid | 266.59
311.76 K, Liquid | 267.05
313.08 K, Liquid | 268.41
314.41 K, Liquid | 269.34
315.76 K, Liquid | 270.21
317 K, Liquid | 270.69
318.33 K, Liquid | 272.36
319.67 K, Liquid | 272.93
321.02 K, Liquid | 273.59
322.36 K, Liquid | 274.52
323.7 K, Liquid | 275.69
325.04 K, Liquid | 276.85
326.38 K, Liquid | 276.96
327.72 K, Liquid | 278.17
329.06 K, Liquid | 279.49
330.4 K, Liquid | 280.25
331.73 K, Liquid | 281.52
334.39 K, Liquid | 283.43
335.72 K, Liquid | 284.46
337.04 K, Liquid | 285.09
338.23 K, Liquid | 285.9
339.56 K, Liquid | 286.67
340.88 K, Liquid | 287.92
342.17 K, Liquid | 289.16
343.47 K, Liquid | 290.19
344.79 K, Liquid | 291.02
346.09 K, Liquid | 292.18
347.39 K, Liquid | 292.25
348.71 K, Liquid | 293.14
350.02 K, Liquid | 294.11
351.34 K, Liquid | 294.99
352.65 K, Liquid | 295.66
353.96 K, Liquid | 296.46
355.26 K, Liquid | 297.51
356.57 K, Liquid | 298.73
357.86 K, Liquid | 298.97
359 K, Liquid | 299.74

— the NIST ThermoML archive (doi:10.1016/j.jct.2004.06.009)
